One test relates to HIV-1LAI. Description: MTT assay, MT-2 cells exposed to HIV-1LAI (acute HIV-1 infection assay). Type of test: cell-based. How it is done: Drug susceptibility assay. The susceptibility of HIV-1LAI, HIV-2EHO, HIV-2ROD, to various drugs and the cytotoxicity of those drugs was determined by using the MTT assay. Briefly, MT-2 cells (2×10^4/mL) were exposed to 100 TCID50s (50% tissue culture infectious doses) of HIV-1LAI, HIV-2EHO, or HIV-2ROD in the presence or absence of various concentrations of drugs in 96-well microculture plates and were incubated at 37° C. for 7 days. After 100 μL of the medium was removed from each well, 3-(4,5-dimethylthiazol-2-yl)-2,5-diphenyltetrazolium bromide (MTT) solution (10 μL, 7.5 mg/mL in phosphate-buffered saline) was added to each well in the plate, followed by incubation at 37° C. for 4 hours. […] All assays were performed in duplicate or triplicate. To determine the sensitivity of HIV-1Ba-L, HIV-1ERS104 pre, and clinical multi-drug-resistant HIV-1 isolates and different subtypes of HIV-1 isolates to drugs, phytohemagglutinin-activated peripheral blood mononuclear cells (PHA-PBMs; 10^6/mL) were exposed to 50 TCID50 (50% tissue infectious dose) of each HIV-1 isolate and cultured in the presence or absence of various concentrations of drugs in 10-fold serial dilutions in 96-well microtiter culture plates. To determine the drug susceptibility of certain laboratory HIV-1 strains (HIV-1NL4-3), MT-4 cells were used as target cells. MT-4 cells (10^5/mL) were exposed to 100 TCID50 of wild type HIV-1NL4-3 and PI-resistant HIV-1NL4-3 in the presence or absence of various concentrations of drugs and were incubated at 37° C. On day 7 of culture, the supernatant was harvested and the amount of p24 Gag protein was determined by using a fully automated chemiluminescent enzyme immunoassay system (Lumipulse F; Fujirebio Inc., Tokyo, Japan) (22). […] All assays were performed in duplicate or triplicate.

Test [1] has as its target T1, CFP- and YFP-tagged HIV-1 protease subunits (Human immunodeficiency virus type 1 group M subtype B, UniProt P12497).
T1 construct: expressed in transfected cells; host or cells: Cos-7
It counts as cell-based. Conditions: for inhibition of protease dimerization: Cos-7 cells; for dose response of dimerization inhibition: 0.001-10 μM (GRL-0026A 0.1-10 μM), 72 hrs. How it is done:
After 72 hr, cultured cells were examined in the FRET-HIV-1 assay system using confocal microscopy Fluoview FV500 confocal laser scanning microscope, and CFP^A/B were determined and plotted. […] The FRET efficiency was determined following acceptor photobleaching as previously described (Bastiaens et al., EMBO 1996; Siegel et al., Science's stke 2000; Firulli et al., Nature genetics, 2005; Szczesna et al., JBC 2003). Dequenching of the donor CFP by selective photobleaching of the acceptor YFP was performed by first obtaining YFP and CFP images at the same focal plane, followed by illuminating for 3 min the same image at wavelength of 488 nm with a laser power set at the maximum intensity to bleach YFP and re-capturing the same CFP and YFP images. The changes in the CFP and YFP fluorescence intensity in the images of selected regions were examined and quantified using Olympus FV500 Image software system. Background values were obtained from the regions where no cells were present and were subtracted from the values for the cells examined in all calculations. For each chimeric protein, the data were obtained from at least three independent experiments. FRET efficiency was determined using the formula: ET=(1−(IDA/ID))×100, where IDA and ID represent the steady-state donor fluorescence in the presence and absence of the acceptor, respectively. Digitized image data obtained from the experiment were prepared for presentation using Photoshop 6.0 (Adobe systems, Mountain View, Calif.). Ratios of intensities of ECFP fluorescence after photobleaching to ECFP fluorescence prior to photobleaching were determined. The ratios of more than 1 indicate that dimerization of CFP- and YFP-tagged protease subunits occurred and those of less than 1 indicate that dimerization was blocked by the test agent.
Generation of FRET-based HIV-1 expression assay. The basic concepts of the intermolecular fluorescence resonance energy transfer (FRET)-based HIV-1-expression assay (FRET-HIV-1 assay) are shown in FIG. 7. Within a plasmid (pHIV-1NL4-3), which encodes a full-length molecular infectious HIV-1 clone, the gene encoding a cyan fluorescent donor protein (CFP) was attached to the downstream end (C-terminus) of the gene encoding an HIV-1 protease subunit through the flexible linker added (five alanines), generating pHIV-1NL4-3/CFP (FIG. 7A). Within the other plasmid (pHIV-1NL4-3), the gene encoding a yellow fluorescent acceptor protein (YFP) was attached to the downstream end of protease-encoding gene in the same manner, generating pHIV-1NL4-3/YFP. Both CFP and YFP were designed to have phenylalanine and proline in the connection with reverse transcriptase so that the protease is cleaved from reverse transcriptase when two subunits dimerize and the dimerized protease acquires enzymatic activity. […] A focused laser beam excitation of CFP (triggered by Helium-Cadmium laser) results in rapid energy transfer to YFP, and most of the fluorescence photons are emitted by YFP (Miyawaki et al. Nature 388(6645):882-887 (1997)). If the dimerization is blocked, the average distance between CFP and YFP becomes larger and the energy transfer rate is decreased and the fraction of photons emitted by YFP is lowered.
In order to interpret the energy transfer efficiency quantitatively, an acceptor photobleaching technique was used, in which the change in CFP emission quenching is measured by comparing the value before and after selectively photobleaching YFP, which prevents problems associated with variable expression levels.

The next test deals with HIV. As to conditions: read-out: ID50 (the source's name); cited from earlier work.
Another test deals with T2, HIV-1 protease (Human immunodeficiency virus type 1 group M subtype B, UniProt P04585, C555A/C583A/L521I/L551I/Q495K/V491I).
T2 construct: Wild-type PR at final concentrations of 160-190 nM were added
Description: biochemical. Type of test: biochemical. From the text:
Enzyme kinetics. The chromogenic substrate Lys-Ala-Arg-Val-Nle-p-nitroPhe-Glu-Ala-Nle-amide (Sigma, St. Louis, Mo.) was used to determine the kinetic parameters (Kovalevsky et al. J Mol Biol 363(1):161-173 (2006), Ghosh et al. J Med Chem 49(17):5252-5261 (2006)). […] The kcat and Km values were obtained employing standard data fitting techniques for a reaction obeying Michaelis-Menten kinetics. The data curves were fitted using SigmaPlot 8.0.2 (SPSS Inc., Chicago, Ill.). The active enzyme concentrations were calculated from the intercept of the linear fit to the IC50 versus [S] plots with the IC50 axis. The Ki values were obtained from the IC50 values estimated from an inhibitor dose-response curve with the spectroscopic assay using the equation Ki=(IC50-[E]/2)/(1+[S]/Km), where [E] and [S] are the PR and substrate concentrations, respectively (Maibaum & Rich J Med Chem 31(34):625-629 (1988)). The Ki values were measured at four to five substrate concentrations. The measurement was repeated at least three times to produce the average values.

The mark [2] stands for this setting: Human immunodeficiency virus 1, MT2, 168 h, read-out: IC50 against HIV-1LAI, MT-2 cells, 100 TCID50 of HIV-1LAI, MTT assay on day 7.
Where [3] appears, read: MT-2 cells, 100 TCID50 of HIV-1LAI, MTT assay on day 7, read-out: IC50 against HIV-1LAI.

This is an account of results in patent publication US9808527B2, “Methods and compositions for treating HIV infections” (priority 2006, dated 2017).

pIC50, pKi: −log10 of the molar value. Entries after “also recorded” stand apart in the source; their conditions may differ. Where two headings read alike, the source gives them in different places.

What is called IC50 is the concentration that gives 50% inhibition. For the compound `COc1ccc(S(=O)(=O)N(CC(C)C)CC(O)C(Cc2ccccc2)NC(=O)OC2COC3OCCC23)cc1` (stereo not shown) [TMC126], the pIC50 with HIV-1LAI (setting [2]) was 9.52. For the same compound, the IC50 in the test with HIV-1LAI (Human immunodeficiency virus 1, MT2, 168 h, read-out: MTT assay (IC50, nM), Human CD4+ MT-2 cells, 100 TCID50 of HIV-1LAI, day 7) is 0.3 nM. Moreover, the “inhibition of protease dimerization” value in test [1] (1 μM) was “dimerization was effectively blocked; also recorded: disrupt protease dimerization”. The “dose response of dimerization inhibition” value in test [1] is “Dose-responsive dimerization inhibition”.
Turning to `COc1ccc(S(=O)(=O)N(CC(C)C)CC(O)C(Cc2ccccc2)NC(=O)OC2COC3OCCC23)cc1` (stereo not shown) [drawing 20], the pIC50 with HIV was 8.85.
Take `COc1ccc(S(=O)(=O)N(CC(C)C)C[C@@H](O)[C@H](Cc2ccccc2)NC(=O)C[C@H]2CO[C@H]3OCC[C@@H]23)cc1` [GRL-0026A]: in the test with HIV-1LAI (setting [3]), the pIC50 was 6.32. In test [1], the “dose response of dimerization inhibition” value is “Dose-responsive dimerization inhibition”.
Consider `CCCCN1C(=O)[C@@H]([C@H](O)C2CCCCC2)NC(=O)C12CCN(Cc1ccc(Oc3ccc(C(=O)O)cc3)cc1)CC2` [aplaviroc], for which the “inhibition of protease dimerization” value in test [1] (1 μM) is reported as “did not block the dimerization; also recorded: failed to inhibit the dimerization; also recorded: failed to inhibit HIV-1 protease dimerization”.
As for `CC(C)CN(CC(O)C(Cc1ccccc1)NC(=O)OC1COC2OCCC12)S(=O)(=O)c1ccc(N)cc1` (stereo not shown), the pIC50 with HIV is 8.35.
For `CCC[C@@]1(CCc2ccccc2)CC(O)=C([C@H](CC)c2cccc(NS(=O)(=O)c3ccc(C(F)(F)F)cn3)c2)C(=O)O1` [TPV, tipranavir], the pIC50 in the test with HIV-1LAI (setting [2]) is 7.00.
On to `Cc1ccc(S(=O)(=O)N(CC(C)C)CC(O)C(Cc2ccccc2)NC(=O)OC2COC3OCCC23)cc1` (stereo not shown), for which, in the test with HIV, the pIC50 is 8.46.
Consider `Cc1ccnc2c1NC(=O)c1cccnc1N2C1CC1` [NVP, nevirapine], for which the “inhibition of protease dimerization” value in test [1] (1 μM) is “failed to inhibit the dimerization”; in test [1] (1 μM, listed as nevirapine), “did not block the dimerization; also recorded: failed to inhibit HIV-1 protease dimerization”.
For `COc1ccc(S(=O)(=O)N(CC(C)C)CC(O)C(Cc2ccccc2)NC(=O)OC2COC3OCCCC23)cc1` (stereo not shown), the pIC50 with HIV was 8.35.
Broadly, the pKi is the negative decadic logarithm of the Ki, by convention in mol/L. For the compound `CC(C)CN(C[C@@H](O)[C@H](Cc1ccccc1)NC(=O)O[C@@H]1C[C@@H]2CCO[C@@H]2C1)S(=O)(=O)c1ccc(CO)cc1` [GRL-06579A], the pKi on HIV-1 protease (wild-type PR, pH 5.0, read-out: Ki against HIV-1 protease) was 11.46. Further, the pIC50 in the test with HIV-1LAI (setting [3]) is 9.00. Besides, the “inhibition of protease dimerization” value in test [1] (1 μM) is “dimerization was effectively blocked; also recorded: disrupt protease dimerization”.
For `Cc1nc(COc2ccc(C[C@H](NC(=O)O[C@H]3CO[C@H]4OCC[C@H]43)[C@H](O)CN(CC(C)C)S(=O)(=O)c3ccc4c(c3)OCO4)cc2)cs1` [BCV, brecanavir], the pKi on HIV-1 protease was 11.17. Further, the pIC50 in the test on HIV-1LAI (setting [2]) is 9.70. In addition, the “inhibition of protease dimerization” value in test [1] (1 μM) was “disrupt protease dimerization”. For the same compound, the “dose response of dimerization inhibition” value in test [1] was “Dose-responsive dimerization inhibition”.
On to `O=C1Nc2ccc(Cl)cc2[C@@](C#CC2CC2)(C(F)(F)F)O1` [EFV, efavirenz], for which the “inhibition of protease dimerization” value in test [1] (1 μM) was “failed to inhibit the dimerization”; in test [1] (1 μM, listed as efavirenz), “did not block the dimerization; also recorded: failed to inhibit HIV-1 protease dimerization”.
Consider `Nc1nc(NC2CC2)c2ncn([C@H]3C=C[C@@H](CO)C3)c2n1` [ABC, abacavir], for which the “inhibition of protease dimerization” value in test [1] (10 μM) is on record as “failed to inhibit the dimerization”; in test [1] (10 μM, listed as abacavir), “did not block the dimerization; also recorded: failed to inhibit HIV-1 protease dimerization”.
